# Measured values as given in PMC9331544, “Molecular Physicochemical Properties of Selected Pesticides as Predictive Factors for Oxidative Stress and Apoptosis-Dependent Cell Death in Caco-2 and HepG2 Cells” (International Journal of Molecular Sciences, 2022).
# Like-named read-outs stand apart in the source and are kept apart here.
# Columns and labels:
# Caco-2 cells [1] = test system: Caco-2 cells
# Description: (§1) Given the role of mitochondria in both oxidative stress and cell death (apoptosis), we evaluated the mitochondrial membrane potential (MMP) using the JC-1 probe (see methods for details). This probe accumulates in the mitochondria in the form of J-aggregates when in normal mitochondrial conditions (polarized) and presents red fluorescence. By contrast, in unhealthy cells, when depolarization occurs, JC-1 enters the mitochondria in lower concentrations forming monomers inducing a fluorescence shift to green fluorescence, thus the loss of MMP is observed through flow cytometry as a reduction in red (FL2) and an increase in green (FL1) fluorescence, or as a reduction in red/green (FL2/FL1) fluorescence ratio [45, 46].
# (§2) Pesticide-induced oxidative stress and apoptosis/necrosis events were analysed by flow cytometry. For this, one colour and two-colour flow cytometry assays were performed, using a BD Accuri™ C6 cytometer (Franklin Lakes, NJ, USA) equipment for data acquisition. Each assay was performed at least in triplicate (n = 3) and 5000 gated events were collected from each sample. Data analysis was performed using BD Accuri™ C6 Software, version 1.0.264.21 supplied by Becton Dickinson (Franklin Lakes, NJ, USA).
# (§3) Caco-2 and HepG2 cells (handled as described in Section 3.2.1) were seeded in 12-well microplates (at 5 × 10^4 cells/mL density; 750 µL/well), and allowed to adhere and stabilize for 48 h in the incubator. […] Negative control cells (non-exposed cells) were included in each assay. After a 24 h incubation with test solutions, cells were washed with phosphate buffer saline (PBS) solution and then detached from the microplates (as in Section 3.2.1) and placed in centrifuge tubes and centrifuged (5 min, 3000 rpm, bench micro-centrifuge). After eliminating the supernatant, cells were washed in PBS solution through another centrifuge cycle. Then cells were divided before being incubated with the specific markers to assess oxidative stress markers and cell apoptosis/necrosis.
# (§4) Mitochondrial membrane potential was analysed using JC-1 probe following the procedures as described by the manufacturer. Caco-2 and HepG2 cells suspended in PBS were centrifuged (5 min, 3000 rpm, bench micro-centrifuge), the supernatant was removed and 200 μL of JC-1 solution (2 μM; diluted in FBS-free culture media) was added to each sample. The samples were incubated for 20 min at 37 °C (in a CO2 incubator) and then analysed by flow cytometry. Negative control, non-exposed, and positive control cells exposed to the protonophore FCCP (5 μM; carbonyl cyanide p-trifluoromethoxyphenylhydrazone) were performed in each set of experiments.
# HepG2 cells [2] = conditions: for HepG2 FL2/FL1 ratio: mean ± SD
# Description: as §1, §2, §3, §4
# [3] = Alamar Blue cell viability/cytotoxicity assay; assay type: cell-based, human; conditions: human
# Procedure: (§5) In this study, to assess the cytotoxic activity of GLY, IMD, and IMZ, human epithelial colorectal adenocarcinoma (Caco-2), cell lines service (CLS), (Eppelheim, Germany) and human hepatocellular carcinoma (HepG2) (ATCC, Rockville, Maryland, USA) cells were used. Cells were cultured in complete culture media (Dulbecco’s Modified Eagle Media (DMEM), supplemented with 1 mM L-glutamine, 10% (v/v) foetal bovine serum (FBS), and antibiotics (penicillin at 100 U/mL, and streptomycin at 100 μg/mL)) and maintained at 5% CO2/95% air; 37 °C, controlled humidity, in an incubator. Cells were grown in T25 culture flasks to near confluence. Then, these adherent cells were treated with trypsin (trypsin-EDTA), for detachment and subculture, which was stopped using complete culture medium (1:1, trypsin:culture media) as soon as cells were detached (about 6 and 8 minutes of trypsin treatment for HepG2 and Caco-2 cells, respectively). Detached cells were gently re-suspended with a Pasteur pipette and then a sample was counted using an automated cell counter (TC10™, BIORAD, Portugal). A suspension of cells in fresh culture media, at 5 × 10^4 cells/mL was prepared to seed into 96-well microplates (100 µL/well). After seeding, cells were placed in the incubator for 48 h (to adhere and stabilize) before being used, for other details see [66, 67].
# (§6) Cell viability was assessed using the Alamar Blue® (AB) assay, after exposure to the pesticides. In summary, cells seeded into 96-well microplates were subjected to various concentrations of the pesticides (GLY: 0–1 mM; IMD: 0–1 mM; IMZ: 0–0.3 mM). To prepare the test solutions, the appropriate volume of the pesticide stock solution was diluted in FBS-free culture media just before its application to the cells. Stock solution of GLY was prepared in water (at 40 mM), and stock solutions of IMD and IMZ were prepared in DMSO (at 20 mM). After 24 h or 48 h of exposure, the test solutions were removed and the Alamar Blue solution (100 µL/well; 10% (v/v) in FBS-free medium) was immediately added to the cells, followed by a further 5 h incubation. The absorbance was then read at 570 and 620 nm using a microplate reader (Multiskan EX; MTX Lab Systems, Inc., Bradenton, FL, USA) and the percentage of the AB reduction was calculated according to the manufacturer’s instructions, as described before. Cell viability, at each condition, was calculated and expressed as percentage of control cells (non-exposed cells).
# (§7) The concentrations needed to reduce cell viability by 50% (IC50) were calculated from three independent experiments (each one performed in quadruplicates), as described.
# Caco-2 cells [4] = assay: Alamar Blue cell viability/cytotoxicity assay; assay type: cell-based, human; conditions: mean ± SD (n = 4), read-out: IC50 of pesticide-induced cytotoxicity
# Procedure: as §5, §6, §7
# HepG2 cells [5] = assay: Alamar Blue cell viability/cytotoxicity assay; assay type: cell-based, human; conditions: mean ± SD (n = 4), read-out: IC50 of pesticide-induced cytotoxicity
# Procedure: as §5, §6, §7
# Caco-2 cells [6] = assay: Intracellular ROS content, DCFDA, flow cytometry; assay type: cell-based, human; conditions: for change in ROS content vs control (in words): Caco-2, 24 h, tested concentrations
# Procedure: (§8) To assess pesticides-induced oxidative stress, the intracellular content in reactive oxygen species (ROS), content in glutathione (GSH), and lipid peroxidation was quantified by flow cytometry, following the methods described by Domínguez-Perles, et al. and Queiroz, et al.. Briefly, to assess ROS content, cells re-suspended in PBS (from Section 3.3.1) were centrifuged (5 min, 3000 rpm, bench micro-centrifuge) and, after eliminating the supernatant, 200 μL of 10 µM DCFDA solution (prepared in FBS-free DMEM) was added to each sample. After a 45 min incubation at 37 °C (in the dark, in an incubator), cells were centrifuged to remove excess of probe and re-suspended in PBS. Finally, 5 μL of propidium iodide (PI; 50 μg/mL) was added to each sample 3 min before flow cytometry acquisition.
# HepG2 cells [7] = assay: Intracellular ROS content, DCFDA, flow cytometry; assay type: cell-based, human; conditions: for change in ROS content vs control (in words): HepG2, 24 h, tested concentrations
# Procedure: as §8
# Caco-2 cells [8] = assay: Glutathione (GSH) content, Mercury Orange, flow cytometry; assay type: cell-based, human; conditions: Caco-2, 24 h, tested concentrations
# Procedure: (§9) To assess GSH content, cells re-suspended in PBS (see Section 3.3.1) were incubated with 40 μM Mercury Orange (1-(4-chloromercuryphenyl-azo-2-naphtol) for 5 min (in the dark, room temperature), as described by du Plessis, et al..
# HepG2 cells [9] = assay: as above; assay type: cell-based, human; conditions: HepG2, 24 h, tested concentrations
# Procedure: as §9
# Caco-2 cells [10] = assay: Lipid peroxidation, DHPE-FITC probe, flow cytometry; assay type: cell-based, human
# Procedure: (§10) Lipid peroxidation was evaluated using the DHPE-FITC probe. Cells re-suspended in PBS (see Section 3.3.1) were incubated with 20 μM DHPE-FITC, for 20 min in the dark at room temperature (as describe).
# HepG2 cells [11] = assay: as above; assay type: cell-based, human
# Procedure: as §10
# Caco-2 cells [12] = assay: Apoptosis/necrosis, Annexin-V-FITC/PI double staining, flow cytometry; assay type: cell-based, human; conditions: Caco-2, 24 h, tested concentrations; listed as GLY
# Procedure: (§11) The samples where then incubated for 20 min at room temperature. After this period, 5 μL of propidium iodide (PI; at 50 μg/mL) solution were added to each sample 3 min before acquisition.
# HepG2 cells [13] = assay: as above; assay type: cell-based, human; conditions: HepG2, 24 h, tested concentrations; listed as GLY
# Procedure: as §11
# HepG2 cells [14] = conditions: occupational concentrations; ref [29]; cited from earlier work
# [15] = test system: L-929 cells (fibroblast cell line); set-up: method as in PMID 33177931; conditions: 500 μM, ref [33]; cited from earlier work
# HepG2 cells [16] = test system: HepG2 cells; set-up: method as in PMID 34635006; conditions: HepG2, 500 μM, 24 h; ref [31]; cited from earlier work
# [17] = ref [47],[48],[49],[50]; cited from earlier work
# [18] = HepG2, FCCP positive control (5 μM)
# [19] = IC50 of pesticide-induced cytotoxicity
compound,measurement,setting,value
"N#CC(C#N)=NNc1ccc(OC(F)(F)F)cc1 [FCCP, carbonyl cyanide p-trifluoromethoxyphenylhydrazone, reference compound]",FL2/FL1 ratio reduction (% of control),"Caco-2 cells [1]; Caco-2, FCCP positive control (5 μM)",93.04±0.93 % of control
same,Caco-2 FL2/FL1 ratio,"Caco-2 cells [1]; Caco-2, FCCP positive control (5 μM), mean ± SD",0.06±0.02
same,FL2/FL1 ratio reduction (% of control),HepG2 cells [2]; [18],79.87±4.12 % of control
same,HepG2 FL2/FL1 ratio,HepG2 cells [2]; [18],0.04±0.01
"O=C(O)CNCP(=O)(O)O [Glyphosate, N-phosphonomethyl-glycine]",IC50 at 24 h,"[3]; Caco-2, 24 h, read-out: IC50 (cytotoxicity)",> 1000 µM
same,IC50 at 48 h,"[3]; Caco-2, 48 h, read-out: IC50 (cytotoxicity)",> 1000 µM
same,IC50 at 24 h,"[3]; HepG2, 24 h, read-out: IC50 (cytotoxicity)",> 1000 µM
same,IC50 at 48 h,"[3]; HepG2, 48 h, read-out: IC50 (cytotoxicity)",> 1000 µM
same,IC50,"Caco-2 cells [4]; Caco-2, 24 h exposure",> 1000 µM
same,IC50,"Caco-2 cells [4]; Caco-2, 48 h exposure",> 1000 µM
same,IC50,"HepG2 cells [5]; HepG2, 24 h exposure",> 1000 µM
same,IC50,"HepG2 cells [5]; HepG2, 48 h exposure",> 1000 µM
same,change in ROS content vs control (in words),Caco-2 cells [6]; listed as GLY,control-like ROS levels
same,change in ROS content vs control (in words),HepG2 cells [7]; listed as GLY,control-like ROS levels
same,change in GSH content vs control (in words),Caco-2 cells [8],did not show GSH levels different from control cells
same,change in GSH content vs control (in words),HepG2 cells [9],initial decrease in GSH content
same,lipid peroxidation (LP) vs control (in words),"Caco-2 cells [10]; Caco-2, 24 h, tested concentrations",did not produce significant LP
same,lipid peroxidation (LP) vs control (in words),"HepG2 cells [11]; HepG2, 24 h, tested concentrations",did not produce significant LP
same,change in mitochondrial membrane potential (in words),"Caco-2 cells [1]; Caco-2, 24 h, tested concentrations, listed as GLY",did not induce significant changes on MMP
same,apoptosis/necrosis induction (in words),Caco-2 cells [12],did not produce significant changes
same,apoptosis/necrosis induction (in words),HepG2 cells [13],did not induce significant changes on cell population distribution
same,HepG2 cell viability (in words),HepG2 cells [14],no reduction in HepG2 cell viability
"O=[N+]([O-])NC1=NCCN1Cc1ccc(Cl)nc1 [Imidacloprid, imidacloprid]",IC50 at 24 h,[3],624 ± 24 µM
same,IC50 at 48 h,[3],620 ± 11 µM
same,IC50 at 24 h,[3]; [19],> 1000 µM
same,IC50 at 48 h,[3]; [19],832 ± 30 µM
same,increase in ROS content compared with control,"Caco-2 cells [6]; Caco-2, 750 μM, 24 h",1.42 fold
same,change in ROS content vs control (in words),Caco-2 cells [6]; listed as IMD,significant (p < 0.05) increase in ROS content
same,increase in ROS content compared with control,"HepG2 cells [7]; HepG2, 500 μM, 24 h",1.59 fold
same,change in ROS content vs control (in words),HepG2 cells [7]; listed as IMD,significant (p < 0.05) increase in ROS content
same,change in GSH content vs control (in words),Caco-2 cells [8],increased GSH levels
same,change in GSH content vs control (in words),HepG2 cells [9],increased GSH levels
same,lipid peroxidation (LP) vs control (in words),Caco-2 cells [10],induced significant LP
same,lipid peroxidation (LP) vs control (in words),HepG2 cells [11],not statistically significant
same,FL2/FL1 ratio reduction (% of control),"Caco-2 cells [1]; Caco-2, 500 μM, 24 h",21.36±0.05 % of control
same,FL2/FL1 ratio reduction (% of control),"Caco-2 cells [1]; Caco-2, 750 μM, 24 h",17.70±2.49 % of control
same,change in mitochondrial membrane potential (in words),HepG2 cells [2],Depolarized MMP
same,FL2/FL1 ratio reduction (% of control),"HepG2 cells [2]; HepG2, 100 μM, 24 h",23.79±1.79 % of control
same,HepG2 FL2/FL1 ratio,"HepG2 cells [2]; HepG2, 100 μM, 24 h",0.17±0.01
same,FL2/FL1 ratio reduction (% of control),"HepG2 cells [2]; HepG2, 250 μM, 24 h",27.49±1.48 % of control
same,HepG2 FL2/FL1 ratio,"HepG2 cells [2]; HepG2, 250 μM, 24 h",0.16±0.02
same,FL2/FL1 ratio reduction (% of control),"HepG2 cells [2]; HepG2, 500 μM, 24 h",19.93±1.29 % of control
same,HepG2 FL2/FL1 ratio,"HepG2 cells [2]; HepG2, 500 μM, 24 h",0.18±0.01
same,LDH release increase,[15],50%
same,ROS content (in words),HepG2 cells [16],doubled ROS content
same,H-bond (donor count),[17],1
same,H-donor (acceptor count),[17],4
